{
  "source": "patent US6713250B1",
  "about": "“Identification of human allergens and T-lymphocyte antigens in vitro” (The Research Foundation of State University of New York, priority 1997, dated 2004)",
  "key": {"[1]": {"system": "human naive T-cells (PBMC)", "assay": "Primary in vitro sensitization culture of PBMC with or without mitomycin C treated T2 cells, 3H-thymidine uptake", "format": "cell-based", "conditions": "for response of PBMC, FIG. 4: PBMC incubated 6 days with mitomycin C treated T2 cells", "procedure": "Preparation of peripheral blood mononuclear cells (PBMC). The research protocol was approved by the Committee on Research Involving Human Subjects of SUNY @ Stony Brook. After informed consent, heparinized blood was obtained by venipuncture. PBMC (peripheral blood mononuclear cells, which include lymphocytes and macrophages/monocytes) were prepared from heparinized peripheral blood by density centrifugation over Ficoll/Hypaque (Pharmacia, Piscataway, N.J.). PBMC were then washed 3 times in serum free wash medium consisting of SMEM (Gibco, Grand Island, N.Y.), and mixed (1:1) with AIM V medium (Gibco). At no time did the PBMC contact animal serum. PBMC were counted, and resuspended at 2×10^6 cells/ml in AIM V medium (Gibco).\nPreparation and mitomycin C treatment of T2 cells. T2 cells were cultured in AIM V media (Gibco). Prior to treatment, they were washed, counted, and resuspended in AIM V media at 2×10^6 cells/ml. Mitomycin C (Sigma, St Louis, Mo.) was then added at 30 μg/ml for a 2 hour incubation at 37° C. The T2 cells were then washed 4 times in serum free wash media, counted with trypan blue dye exclusion, and resuspended at 1×10^6 cells/ml.\n(§1) In vitro sensitization cultures. Cell cultures were performed in 96 well U-bottom trays (Linbro), with a total volume of 0.2 ml/well of AIM V medium (Gibco). PBMC (2×10^6/ml) were first admixed with equal volumes of T2 cells (1×10^6/ml), and 0.1 ml of the cell mixture was added to each well. Test compounds were then added (0.1 ml/well) at twice the desired final concentration. Each well contained 1×10^5 PBMC, 5×10^4 T2 cells, and the test compound. Control wells contained 0.1 ml of media rather than test compound. The final ratio of PBMC to T2 cells was 2:1. There were 6 replicate wells per group. The 96-well trays were then cultured for 6 days at 37° C. in a 7.5% Co2 incubator. After 6 days, 1 μCi of ^3H-thymidine was added to each well. The wells were harvested 18 hours later, and ^3H-thymidine uptake was determined with a scintillation counter (Pharmacia LKB Nuclear, Gaithersburg, Md.)."}, "[2]": {"system": "T-cells (E+) and non-T cells (E-)", "assay": "In vitro sensitization culture of purified T-cells / non-T cells mixtures with mitomycin C treated T2 cells, 3H-thymidine uptake", "format": "cell-based, human", "conditions": "for MEAN/SEM (3H-thymidine uptake) / S.I.: T2 cells YES, paraphenylenediamine 10 μg/ml", "procedure": "Purification of T-lymphocytes. Sheep erythrocyte receptor positive (E+) T-cells and negative (E−) non-T-cells were isolated by rosetting followed by centrifugation over a Ficoll-Hypaque gradient and lysis of sheep erythrocytes by ammonium chloride as described (38). The (E+) population was greater than 95% CD3+ as determined by cytofluorgraph analysis (below).\nas §1\nLymphocyte proliferation assays are generally the result of T-lymphocyte proliferation. It was confirmed that this was also true of this novel in vitro sensitization system. T-cells (70%) were mixed with irradiated (6,000R) non-T cells (30%) for a test of in vitro sensitization to paraphenylenediamine in the presence of mitomycin C treated T2 cells. In a reciprocal group, non-T cells (70%) were mixed with irradiated T-cells (30%). These cell mixtures were added to the culture system, admixed with mitomycin C treated T2 cells, and paraphenylenediamine. […] The T2 cells are not functioning as antigen presenting cells (which is to be expected since the T2 cells lack antigen presenting Major Histocompatibility Complex antigens HLA-DR and HLA-A,B,C), but rather function as accessory cells."}, "[3]": {"system": "human naive T-cells (PBMC)", "assay": "Primary in vitro sensitization culture of PBMC with or without mitomycin C treated T2 cells, 3H-thymidine uptake", "format": "cell-based"}, "[4]": {"conditions": "PBMC + T2 CELLS (mitomycin C treated), paraphenylenediamine 10 μg/ml"}, "[5]": {"conditions": "PBMC at 1 × 10^5/well, T2 cells at 5 × 10^4/well, 3 μg/ml"}, "[6]": {"conditions": "PBMC from 4 donors, 6 days with mitomycin C treated T2 cells, each compound 3.3 μM to 60 μM"}, "[7]": {"conditions": "T-cells 30% (6,000R), non-T cells 70%"}, "[8]": {"conditions": "T-cells 70%, non-T cells 30% (6,000R)"}, "[9]": {"conditions": "PBMC 1 × 10^5/well, no T2 cells, 3 μg/ml"}, "[10]": {"conditions": "PBMC at 1 × 10^5/well, T2 cells at 1 × 10^5/well, 3 μg/ml"}, "[11]": {"conditions": "PBMC, NO T2 CELLS, paraphenylenediamine 10 μg/ml"}},
  "note": "“And” between values parts separate entries of the source, which are not always exact repeats. Equal entries are not always repeated. Marks after values point to notes of the source that are not given here.",
  "data": [
    {"molecule": "Nc1ccc(N)cc1", "note": "[paraphenylenediamine]", "values": [
      {"measurement": "MEAN (3H-thymidine uptake of 6 replicate wells)", "setting": "[1]; [4]", "value": 11973},
      {"measurement": "S.I. (Stimulation index: response to antigen/response to media)", "setting": "[1]; [4]", "value": "2.09^e"},
      {"measurement": "response of naive donor PBMC to antigen", "setting": "[1]; PBMC admixed with T2 cells at a ratio of 2:1, paraphenylenediamine 3 μg/ml, HIV gp160 P18 peptide 10 μg/ml", "value": "statistically significant response"},
      {"measurement": "MEAN dpm (3H-thymidine uptake of 6 replicate wells)", "setting": "[1]; [5]", "value": 6935, "unit": "dpm"},
      {"measurement": "S.I. (Stimulation index: response to antigen/response to media)", "setting": "[1]; [5]", "value": "1.97^c"},
      {"measurement": "donor PBMC that responded, FIG. 2", "setting": "[1]; [6]", "value": "3/4 and 3"},
      {"measurement": "response of PBMC (3H-thymidine uptake), FIG. 1", "setting": "[1]; PBMC from 4 donors, presence or absence of mitomycin C treated T2 cells, 3 μg/ml, 6 days", "value": "Only in the presence of T2 cells was there a response"},
      {"measurement": "response of PBMC, FIG. 4", "setting": "[1]", "value": "positive response"},
      {"measurement": "MEAN/SEM (3H-thymidine uptake)", "setting": "[2]; [7]", "value": "3096/446"},
      {"measurement": "S.I.", "setting": "[2]; [7]", "value": "0.57^"},
      {"measurement": "MEAN/SEM (3H-thymidine uptake)", "setting": "[2]; [8]", "value": "50220/2643"},
      {"measurement": "S.I.", "setting": "[2]; [8]", "value": "1.94^e"},
      {"measurement": "MEAN/SEM (3H-thymidine uptake)", "setting": "[2]; T-cells YES, non-T cells NO", "value": "2263/317"},
      {"measurement": "S.I.", "setting": "[2]; T-cells YES, non-T cells NO", "value": "0.67^"},
      {"measurement": "response to paraphenylenediamine", "setting": "[2]; T-cells admixed with T2 cells in the absence of non-T cells", "value": "no response"},
      {"measurement": "response to paraphenylenediamine", "setting": "[2]; group where the T-cells had been irradiated (6,000R), mitomycin C treated T2 cells", "value": "no response"},
      {"measurement": "response to paraphenylenediamine", "setting": "[2]; groups with non-irradiated T-cells, mitomycin C treated T2 cells", "value": "only detected in the groups with non-irradiated T-cells"},
      {"measurement": "MEAN dpm (3H-thymidine uptake of 6 replicate wells)", "setting": "[3]; [9]", "value": 2869, "unit": "dpm"},
      {"measurement": "S.I. (Stimulation index: response to antigen/response to media)", "setting": "[3]; [9]", "value": 0.96},
      {"measurement": "MEAN dpm (3H-thymidine uptake of 6 replicate wells)", "setting": "[3]; [10]", "value": 7856, "unit": "dpm"},
      {"measurement": "S.I. (Stimulation index: response to antigen/response to media)", "setting": "[3]; [10]", "value": 1.12},
      {"measurement": "donor PBMC that responded, FIG. 3", "setting": "[3]; PBMC from 6 donors, 6 days with mitomycin C treated T2 cells", "value": "3/6"},
      {"measurement": "MEAN (3H-thymidine uptake of 6 replicate wells)", "setting": "[3]; [11]", "value": 3054},
      {"measurement": "S.I. (Stimulation index: response to antigen/response to media)", "setting": "[3]; [11]", "value": "1.03^"},
      {"measurement": "response of naive donor PBMC to antigen", "setting": "[3]; absence of T2 cells, paraphenylenediamine 3 μg/ml, HIV gp160 P18 peptide 10 μg/ml", "value": "no response"}
    ]},
    {"molecule": "Nc1ccc(O)cc1", "note": "[p-aminophenol]", "values": [
      {"measurement": "response of PBMC, FIG. 4", "setting": "[1]", "value": "positive response"}
    ]},
    {"molecule": "CCCCCCCCCCCCOS(=O)(=O)[O-].[Na+]", "note": "[SDS, sodium dodecyl sulfate]", "values": [
      {"measurement": "response of PBMC, FIG. 4", "setting": "[1]", "value": "negative response"},
      {"measurement": "induction of a response of naive human T-lymphocytes in the culture system", "setting": "[1]; culture with accessory T2 cells", "value": "did not induce a response"},
      {"measurement": "donor PBMC that responded, FIG. 2", "setting": "[3]; [6]", "value": "none"}
    ]},
    {"molecule": "Oc1ccccc1O", "note": "[catechol]", "values": [
      {"measurement": "response of PBMC, FIG. 4", "setting": "[1]", "value": "positive response"}
    ]}
  ]
}
